# Read-outs that look alike come from different tables or passages of the source.
# Columns and labels:
# Phakopsora pachyrhizi = experiment: In vivo preventive test on Phakopsora (soybeans); parameters: species or system Phakopsora pachyrhizi (soybean rust) on soybeans; settings: 168 h, young soybean plants sprayed, 10 ppm of active ingredient, evaluated 7 days after inoculation, 0% = untreated control, 100% = no disease, read-out: efficacy
# Experimental: Example: In Vivo Preventive Test on Phakopsora Test (Soybeans)
# To produce a suitable preparation of active compound, 1 part by weight of active compound is mixed with the stated amounts of solvent and emulsifier, and the concentrate is diluted with water to the desired concentration.
# To test for preventive activity, young plants are sprayed with the preparation of active compound at the stated rate of application. After the spray coating has dried on, the plants are inoculated with an aqueous spore suspension of the causal agent of soybean rust (Phakopsora pachyrhizi) and stay for 24 h without light in an incubation cabinet at approximately 24° C. and a relative atmospheric humidity of 95%.
# The plants remain in the incubation cabinet at approximately 24° C. and a relative atmospheric humidity of approximately 80% and a day/night interval of 12 h.
# The test is evaluated 7 days after the inoculation. 0% means an efficacy which corresponds to that of the untreated control, while an efficacy of 100% means that no disease is observed.
# [1] = Log P measurement by HPLC on reversed phase columns (EEC directive 79/831 Annex V.A8); format: physicochemical; settings: reversed phase HPLC column, LC-UV
# Experimental: [table] Measurement of Log P values was performed according to EEC directive 79/831 Annex V.A8 by HPLC (High Performance Liquid Chromatography) on reversed phase columns with the following methods: If more than one Log P value is available within the same method, all the values are given and separated by “+”. […] Lambda-max-values were determined using UV-spectra from 200 nm to 400 nm and the peak values of the chromatographic signals.
# [2] = acidic range, 0.1% formic acid in water and acetonitrile as eluent (linear gradient 10% to 95% acetonitrile), read-out: LogP [a]
# [3] = neutral range, 0.001 molar ammonium acetate solution in water and acetonitrile as eluent (linear gradient 10% to 95% acetonitrile), read-out: LogP [b]
Compound,pest or weed control at 10 ppm (Phakopsora pachyrhizi),"chromatographic logP [1, 2]","chromatographic logP [1, 3]"
"CCN(C)C=Nc1cc(C)c(Cc2ccccc2F)cc1C [Example 10, N-ethyl-N′-[4-[(2-fluorophenyl)methyl]-2,5-dimethylphenyl]-N-methylmethanimidamide]",90 to 100%,1.6,4.87
"CCN(C)C=Nc1cc(C)c(Cc2ccc(F)cc2F)cc1Cl [Example 21, N′-[2-chloro-4-[(2,4-difluorophenyl)methyl]-5-methylphenyl]-N-ethyl-N-methylmethanimidamide]",90 to 100%,1.86,4.6

# Reference: US20190308933A1, “PHENYLAMIDINES AND THE USE THEREOF AS FUNGICIDES” (priority 2016, published 2019)
